{"source": "patent US20250057791A1", "about": "“PROTECTION AGAINST ARTHROPOD PARASITES WITH PURINERGIC RECEPTOR (OPR) ANTAGONISTS” (priority 2021, published 2025)", "key": {"[1]": {"test_system": "Glossina pallidipes", "test": "Membrane feeding assay, tsetse fly Glossina pallidipes", "assay_type": "in vivo", "conditions": "for effect on feeding, compound in solution containing ATP, in words: doses as in Table 10", "procedure": "Flies of both species were transferred 30 min before feeding experiments to feeding cages as used for mosquitoes at 24° C., 80% RH in an environmental cabinet. Teneral tsetse were fed at 2 to 4 days old during the photophase with between 7 and 13 flies per feeding cage, covered with a black cloth. Horn flies were tested at 1 and 2 days old in the photophase with between 6 and 21 flies per cage. Both fly species were fed using small Hemotek feeding reservoirs (29 mm diameter, 1 ml) equipped with a membrane as for mosquitoes. Horn flies were fed for 15 min with feeding reservoirs placed on the cage. For tsetse, cages were closed with black mosquito netting at the bottom to allow flies to feed through the membrane placed under the cage. Feeding time (1.5 to 6 min) for tsetse was adjusted as a function of age to achieve at least 30% feeding on the positive control included in each feeding experiment. The positive control for both fly species contained 150 mM NaCl, 8.9 mM NaHCO3 with 100 μM ATP added, hereafter termed fly feeding solution (FFS). The pH of the FFS was adjusted as for ticks. The effect of TMP on feeding by G. pallidipes was also tested at 16 μg TMP/cm^2 dissolved in 140 μl hexane and applied homogeneously to the membrane surface using a micropipette. Hexane was used to treat the membrane with TMP to avoid the test compound being dispersed by fly wing-fanning. Flies of both species were activated just prior to feeding on a treatment by exhalation into the cage. Tsetse that had fed were identified with swollen abdomens and counted at the end of a feeding experiment. Since it was difficult to ascertain by eye whether a horn fly had fed on a treatment, 10 μl/ml of blue food colorant (No. 4866908, Trawosa AG, St. Gallen, Switzerland) was added. This facilitated the detection of ingested liquid when the abdomen of flies, killed by freezing, was squashed onto filter paper. Only experiments in which the feeding rate by flies was >30% on the positive control were included in analyses.\nUptake of TFS containing PR antagonists, converted to mg/h for hard ticks and weight gains in mg/25 min for soft ticks, was compared to TFS uptake in the corresponding positive controls. […] For tsetse and horn flies the percentage flies that fed per antagonist treatment served as the criterion for inhibition of feeding. As horn fly sexes emerged within 24 h, both sexes were assumed to show the same degree of appetence. In tsetse, males emerged first so a gender-related appetence could not be excluded. No sex-related feeding differences in feeding were found for testse (GLM, P>0.05) so data for the sexes were pooled. Comparisons of percentage fed flies were made using a Bayesian GLM—the most appropriate model considering the zero-inflated distributions shown by the data sets. […] P-values were corrected using Holm's FWEC in multiple comparisons of data for each tick and fly species."}, "[2]": {"test_system": "A. gambiae", "test": "Membrane feeding assay, A. gambiae", "assay_type": "in vivo, Anopheles gambiae", "conditions": "for effect on feeding on solution containing ATP, in words: 20 μM ATP, CPT at 10 μM; for ID95 in μM (±s.e.m.): feeding on 20 μM ATP in the feeding solution", "procedure": "Experiments with A. gambiae and A. stephensi were made in a climate chamber at 28° C. and 80% RH during the last 6 hours of scotophase. As a sugar meal can interfere with the blood meal by reducing the number of females that feed, the sucrose solution supplied in rearing cages to mosquitoes employed for feeding experiments was reduced to 5%. […] The 5% sucrose solution was presented to mosquitoes from emergence on four 1 cm diam. cotton dental rolls (Hartmann A G, Neuhausen, Switzerland) inserted in 10 ml upturned glass vials placed in holes at each corner of the rearing cage ceiling. Cotton rolls were turned daily in vials and renewed every two days. Mosquitoes were not fed blood and were deprived of sucrose 17 to 20 hours before experiments. Thirty min before a feeding experiment, between 10-25, 6-day-old females that responded to activation by human breath were removed with a mouth aspirator from the rearing cage wall and placed in polystyrol cylinders with the floor cut out (10 cm dm×15 cm high; Semadeni, Ostermundigen, Switzerland) that served as feeding cages. Each cage was covered with mosquito netting at one end and a soft polyurethane lid at the other.\nMosquitoes were fed for 30 min using a feeding system (Hemotek®, Hemotek Ltd, Blackburn, UK) consisting of 3.5 ml stainless steel reservoirs 37 mm in diameter covered with a 60-90 μm thick silicone-impregnated membrane (Kröber and Guerin, 2007 in “Feeding assays for hard ticks”, Trends in parasitology 23, 445-449; doi 10.1016/j.pt.2007.07.010). Feeding reservoirs reached a temperature of 37° C. within 10 min and were placed on the netting of feeding cages. Mosquitoes were activated using a 200 ms pulse of pure CO2 (volume 6.25 ml) from a pressurised cylinder (Carbagas, Switzerland) using a solenoid valve that caused the CO2 level in the feeding cage to rise to at least 1,500 ppm. Between 3 and 4 sets of 10 feeding cages held in a custom-built Ertacetal® POM frame were tested per day, depending of the number of female mosquitoes available from the colony.\nAll compounds were tested in a mosquito feeding solution (FS) consisting of 25 mM dextrose, 25 mM NaCl buffered with 8.93 mM NaHCO3 adjusted to pH 7.4. Feeding responses of A. gambiae and A. stephensi to ATP as a function of dose were tested with between 7 to 10 feeding cages per dose. Each feeding experiment with an antagonist systematically included a treatment containing the FS as negative control along with a treatment containing the FS with […] added as positive control for A. gambiae and with […] added as positive control for A. stephensi. These positive and negative controls permitted to monitor any effect of experimental day on feeding responses as a function of dose for antagonists that were recorded over several days. […] Four to 10 cages each with 10 to 29 mosquitoes were tested per antagonist dose. […] The number of feeding cages used to test other compounds and their mixtures as feeding stimulants or as feeding inhibitors is listed on Table 6. The percentage of fed mosquitoes was estimated by visual inspection of abdominal distention that is indicative of engorgement.\nPairwise comparisons of A. gambiae electrophysiological (EP) responses to ATP and adenosine alone and combined with a given dose of PR antagonist, EP responses to ATP alone and combined with a given dose of a metal modulator, and EP responses to ATP prior to and after exposure of a sensillum to a given dose of a PR antagonist were made with a one-tailed Wilcoxon signed-rank test for data showing a non-normal distribution, with a paired Student's t-test for normally distributed data showing homogeneous variance and with a Welch's t-test for normally distributed data showing non-homogeneous variance. […]"}}, "note": "Values joined by “and” are separate entries in the source; they are usually repeats but may differ in a detail not shown here. Equal values may be shown once.", "data": [{"smiles": "O=C(O)c1cc(C(=O)O)c(C(=O)N(Cc2cccc(Oc3ccccc3)c2)[C@H]2CCCc3ccccc32)cc1C(=O)O", "note": "[A-317491, 5-[(3-phenoxyphenyl)methyl-[(1S)-1,2,3,4-tetrahydronaphthalen-1-yl]carbamoyl]benzene-1,2,4-tricarboxylic acid]", "values": [{"measurement": "% Fed, Median", "setting": "[1]; FFS + 1 μM", "value": 22.5, "unit": "%"}, {"measurement": "effect on feeding, compound in solution containing ATP, in words", "setting": "[1]", "value": "inhibited feeding"}, {"measurement": "effect on feeding on solution containing ATP, in words", "setting": "[2]", "value": "inhibited feeding"}, {"measurement": "% fed mosquitoes (mean ± s.e.m.), ATP + antagonist", "setting": "[2]; antagonist 1 nM + 20 μM ATP", "value": 43.71, "unit": "%"}]}, {"smiles": "Cc1ccc(C(=O)Nc2ccc(S(=O)(=O)O)c3cc(S(=O)(=O)O)cc(S(=O)(=O)O)c23)cc1NC(=O)c1cccc(NC(=O)Nc2cccc(C(=O)Nc3cc(C(=O)Nc4ccc(S(=O)(=O)O)c5cc(S(=O)(=O)O)cc(S(=O)(=O)O)c45)ccc3C)c2)c1", "note": "[Suramin]", "values": [{"measurement": "% Fed, Median", "setting": "[1]; FFS + 50 μM", "value": 45.5, "unit": "%"}, {"measurement": "% fed mosquitoes (mean ± s.e.m.), ATP + antagonist", "setting": "[2]; antagonist 1 μM + 20 μM ATP", "value": 34.86, "unit": "%"}, {"measurement": "ID95 in μM (±s.e.m.)", "setting": "[2]", "value": 1.36, "unit": "µM"}]}, {"smiles": "Nc1ncnc2c1ncn2[C@@H]1O[C@H](COP(=O)(O)OP(=O)(O)OP(=O)(O)O)[C@@H](O)[C@H]1O", "note": "[ATP, Adenosine 5′-triphosphate]", "values": [{"measurement": "% fed mosquitoes (mean ± s.e.m.), ATP [20 μM]", "setting": "[2]; 20 μM ATP alone, positive control of the antagonist", "value": "66.12% and 65.96% and 64.49% and 69.12% and 69.68% and 64.2% and 70.2% and 67.6%"}, {"measurement": "% Engorged mosquitoes", "setting": "[2]; 20 μM in feeding solution", "value": "67.5 ± 2.1", "unit": "%"}, {"measurement": "% feeding at the ED95", "setting": "[2]; 22.5 μM ATP", "value": 68.15, "unit": "%"}, {"measurement": "% mosquitoes fed at the asymptote", "setting": "[2]; 45 μM ATP", "value": 70.25, "unit": "%"}, {"measurement": "asymptote dose of feeding response", "setting": "[2]; dose dependent feeding", "value": 45, "unit": "µM"}, {"measurement": "ED95, feeding stimulant", "setting": "[2]; dose dependent feeding on feeding solution", "value": 22500, "unit": "nM"}]}, {"smiles": "Cc1nc(C)c(C)nc1C", "note": "[TMP, 2,3,5,6-tetramethylpyrazine]", "values": [{"measurement": "% Fed, Median", "setting": "[1]; FFS + 16 μg/cm^2 on membrane", "value": 40, "unit": "%"}, {"measurement": "% Fed, Median", "setting": "[1]; FFS + 150 μM", "value": 66.7, "unit": "%"}, {"measurement": "effect on feeding, compound applied onto the feeding membrane, in words", "setting": "[1]; dose as in Table 10", "value": "significantly inhibited feeding"}, {"measurement": "effect on feeding, compound in solution containing ATP, in words", "setting": "[1]", "value": "failed to inhibit feeding"}, {"measurement": "% Engorged mosquitoes", "setting": "[2]; 7.5 μM TMP + 20 μM ATP + 200 μM Adenosine", "value": "36.7 ± 6.0", "unit": "%"}, {"measurement": "effect on feeding on solution containing ATP, in words", "setting": "[2]", "value": "inhibited feeding"}, {"measurement": "% fed mosquitoes (mean ± s.e.m.), ATP + antagonist", "setting": "[2]; antagonist 10 nM + 20 μM ATP", "value": 50.47, "unit": "%"}, {"measurement": "ID95 in μM (±s.e.m.)", "setting": "[2]", "value": 1.28, "unit": "µM"}]}]}
